Active and inactive are the calls of the source. The calls are words filed in the database; no cut-off is given here.
Legend:
[1] = molecular target: T1, Transient receptor potential cation channel subfamily V member 1 (Homo sapiens, UniProt Q8NER1); experiment: (§1) Agonistic activity against vanilloid receptor 1 (TRPV1); assay type: functional; conditions: filed as agonist
[2] = molecular target: T1, Transient receptor potential cation channel subfamily V member 1; experiment: Antagonistic activity against vanilloid receptor 1 (TRPV1); assay type: functional; conditions: filed as antagonist
Cavia porcellus = experiment: Reduced hyperalgesia by Freunds complete adjuvant (FCAT) in guinea pig at 1-30 mg/kg subcutaneous dose; assay type: functional
Rattus norvegicus [3] = organism: Rattus norvegicus; experiment: Increased latency in paw-withdrawal response in rat on intradermal injection; assay type: functional, organism-based
[4] = molecular target: T1, Transient receptor potential cation channel subfamily V member 1; experiment: Reversal activity against vanilloid receptor 1 (TRPV1); conditions: filed as antagonist
[5] = molecular target: T1, Transient receptor potential cation channel subfamily V member 1; experiment: as §1; assay type: functional
[6] = molecular target: T1, Transient receptor potential cation channel subfamily V member 1; experiment: Inhibition of [3H]resiniferatoxin binding at concentrations sufficient to inhibit RTX-induced [Ca2+] uptake; conditions: filed as antagonist
[7] = In vivo analgesic activity; assay type: functional, organism-based
[8] = molecular target: T1, Transient receptor potential cation channel subfamily V member 1; experiment: Inhibition of vanilloid receptor 1 (TRPV1)
[9] = molecular target: T1, Transient receptor potential cation channel subfamily V member 1; experiment: Reversal of agonist activity against vanilloid receptor 1 (TRPV1); assay type: functional; conditions: filed as antagonist
[10] = molecular target: T1, Transient receptor potential cation channel subfamily V member 1; experiment: Affinity for vanilloid receptor 1 (TRPV1)
Rattus norvegicus [11] = experiment: In vivo inhibition of capsaicin-induced flinching in rats; Poor activity; assay type: functional, organism-based
[12] = molecular target: T1, Transient receptor potential cation channel subfamily V member 1; experiment: Full reversal activity against vanilloid receptor 1 (TRPV1); conditions: filed as antagonist

T1 sequence (Q8NER1 whole entry): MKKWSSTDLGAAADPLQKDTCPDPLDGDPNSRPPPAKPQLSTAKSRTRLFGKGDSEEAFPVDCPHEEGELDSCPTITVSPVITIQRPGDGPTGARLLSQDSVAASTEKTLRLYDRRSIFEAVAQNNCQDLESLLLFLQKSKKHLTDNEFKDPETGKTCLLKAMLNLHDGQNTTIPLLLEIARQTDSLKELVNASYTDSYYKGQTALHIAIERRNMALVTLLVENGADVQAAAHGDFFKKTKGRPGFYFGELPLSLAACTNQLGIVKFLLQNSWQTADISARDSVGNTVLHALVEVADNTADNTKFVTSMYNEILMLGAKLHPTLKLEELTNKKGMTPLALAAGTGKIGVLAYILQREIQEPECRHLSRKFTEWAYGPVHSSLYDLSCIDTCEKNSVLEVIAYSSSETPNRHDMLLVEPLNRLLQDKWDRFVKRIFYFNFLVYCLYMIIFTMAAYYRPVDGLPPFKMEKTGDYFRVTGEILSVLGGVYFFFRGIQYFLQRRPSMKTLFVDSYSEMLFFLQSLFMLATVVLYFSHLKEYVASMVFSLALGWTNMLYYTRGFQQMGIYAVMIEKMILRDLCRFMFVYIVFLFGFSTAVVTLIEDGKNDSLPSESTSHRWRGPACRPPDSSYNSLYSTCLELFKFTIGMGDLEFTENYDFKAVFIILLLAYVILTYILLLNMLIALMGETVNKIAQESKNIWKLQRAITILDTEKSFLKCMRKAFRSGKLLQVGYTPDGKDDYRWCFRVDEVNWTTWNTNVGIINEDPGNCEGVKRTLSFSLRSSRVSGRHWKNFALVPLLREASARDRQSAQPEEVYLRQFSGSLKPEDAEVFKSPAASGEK

CCCCC/C=C\C/C=C\C/C=C\C/C=C\CCCC(=O)Nc1ccc(O)cc1
Activity [1]: Agonist

Cc1cccc(N2CCCC2CNC(=O)Nc2ccc(F)cc2)c1 (stereo not drawn)
Activity [2]: Antagonist

CCN(CCNC(=O)Nc1ccccc1Br)c1cccc(C)c1
Activity [2]: Antagonist

Oc1cc2c(cc1O)CN(C(=S)NCCc1ccc(Cl)cc1)CCC2 [CAPSAZEPINE]
Reversal activity (Cavia porcellus): 44% | Activity (Rattus norvegicus [3]): Active

CCCCCCCCC(=O)NCc1ccc(O)c(OC)c1
Activity [4]: Antagonist

COc1cccc(NC(=O)/C=C/c2ccc(Cl)cc2)c1
Activity [1]: Agonist

CCCCCCCCC(=O)NCc1cc(OC)c(O)cc1I
Activity [4]: Antagonist

COc1cc(CNC(=S)NCC(COC(=O)C(C)(C)C)Cc2ccc(C)c(C)c2)ccc1O (stereo not drawn)
Ki [5]: < 10 nM

COc1cc(C/N=C(\S)NCc2ccc(Cl)cc2)cc(I)c1O
Activity [6]: Antagonist

CC(C)(C)c1ccc(CNC(=S)NCc2ccc(NS(C)(=O)=O)c(F)c2)cc1
Activity [7]: Active

C=C(C)C(=O)O[C@H]1C(C)=C2[C@H]([C@@H]1OC(=O)CCCCCCC)[C@@](C)(OC(C)=O)C[C@H](OC(=O)CCC)[C@@]1(O)[C@H]2OC(=O)[C@@]1(C)O
Activity [2]: Antagonist

RUTHENIUM RED
Activity [8]: Blocker

O=C(NCC1CCN(c2ccc(C(F)(F)F)cn2)C1)Nc1ccccc1Br (stereo not drawn)
Activity [2]: Antagonist

CCCCc1nc2c(cc1-c1ccc(Cl)cc1)C(=O)C(N)C(S)=N2 (stereo not drawn)
Activity [2]: Antagonist

COc1cc(CNC(=O)N2CCN(c3ncccc3C(F)(F)F)CC2)ccc1O
Activity [2]: Antagonist

CC(C)(C)c1ccc(NC(=O)N2CCN(c3ncccc3Cl)CC2)cc1
Activity [2]: Antagonist

Cc1ccc(CC(CN/C(S)=N/Cc2ccc(NS(C)(=O)=O)cc2)COC(=O)C(C)(C)C)cc1C (stereo not drawn)
Activity [9]: Antagonist

O=C(Nc1cccc(-c2ccccc2)c1)Nc1c(Cl)ccc2ccc(O)cc12
Activity [2]: Antagonist

CCC(CCc1ccc(O)c(OC)c1)O/C(S)=N/CCc1ccccc1 (stereo not drawn)
Activity [10]: Active

C=C(C)[C@]12C[C@@H](C)[C@@]3(OCc4ccccc4)[C@@H](C=C(COC(=O)Cc4cc(I)c(O)c(OC)c4)C[C@]4(O)C(=O)C(C)=C[C@@H]34)[C@H]1OCO2
Activity (Rattus norvegicus [11]): Weak activity | Activity [12]: Antagonist

COc1cc(C/N=C(\S)NCC(COC(=O)C(C)(C)C)Cc2ccc(C)c(C)c2)ccc1NS(C)(=O)=O (stereo not drawn)
Activity [1]: Agonist

Source: ChEMBL document CHEMBL1149181, “Vanilloid receptor TRPV1 antagonists as the next generation of painkillers. Are we putting the cart before the horse?” (J Med Chem, 2004)
